Entries after “also recorded” stand apart in the source; their conditions may differ.
What was measured:
[1] = From the text: Plasma samples were collected from patients who received an intravenous infusion of daptomycin in the intensive care unit (ICU) of Zhongnan Hospital of Wuhan University from April 2021 to December 2022 according to the inclusion and exclusion criteria and the clinical sample sampling protocol for blood drug concentration testing. Patients who fulfilled the following criteria were eligible: ≥18 years old; treated with daptomycin for proven/probable infections caused by Gram-positive organisms that were unresponsive or intolerant to other antimicrobial agents. The exclusion criteria were pregnancy, known or suspected hypersensitivity to daptomycin and its excipients, and incomplete or missing laboratory data before and after treatment.
Daptomycin (Jiangsu Hengrui Medicine Co., Ltd.) dissolved in 100 mL normal saline was administered as a 30-min infusion. The daptomycin dose was 500 mg every 24 h. To obtain a complete blood drug concentration time curve after administration, we took into account the equilibrium phase (near peak concentration) and elimination phase of the drug in the design of sampling time points. On the first day of administration, blood samples were collected at 0, 0.5, 1, 2, 4, 8, 12, and 24 h after infusion. On the third day of administration, blood samples were collected before administration and at 0, 0.5, 1, 2, 4, 8, 12, and 24 h after infusion. On the fifth and seventh days, blood samples were collected before administration and at 0.5 and 4 h after infusion. Blood was drawn and allowed to clot in yellow blood-collecting tubes containing separating glue and a coagulant accelerator. Serum was collected by centrifugation and stored at −80°C until assayed. As soon as the study dose was administered, the participants were monitored for potential side effects. Serious adverse events were defined as adverse events related to daptomycin that required treatment discontinuation.
Serum daptomycin concentrations were measured using a high-performance liquid chromatography-tandem mass spectrometry method developed in our laboratory, the lower limit of quantification was 0.05 μg mL^−1. Briefly, serum samples were analyzed after protein precipitation. Daptomycin-d5 (Beijing Hager Biotechnology Co., Ltd.) was used as an internal standard. A Waters ACQUITY UPLC C8 column (2.1 mm × 50 mm, 1.7 μm) was used for separation. The mobile phase consisted of phase A: water (0.1% formic acid), phase B: 1:1 methanol: acetonitrile (0.1% formic acid) at a flow rate of 0.4 mL min^−1, column temperature of 45°C, injection volume of 2 μL, and analysis time of 4 min. Ion transitions were performed using positive electrospray ionization in the multiple reaction monitoring mode.
Before measurement, the sample was restored to room temperature, 100 μL of 1:1 methanol: acetonitrile was measured into a […] EP tube, then 10 μL of daptomycin-d5 with 40 μL of sample/standard/quality control was added, the sample was vortex shaken for 1 min, centrifuged at high speed for 8 min (14,500 r/min), and the supernatant was placed in a 96-well plate for the assay.
NONMEM (version 8.1; ICON Development Solutions, Hanover, MD, United States) was used to establish a population PK model for daptomycin and to perform Monte Carlo simulations ([Bauer et al., 2007]). The ADAPT-TRAN program was used for pre- and post-processing ([Savic et al., 2009]). This study explored one- and two-compartment models of population PK of daptomycin. The two-compartment, disposition model was parameterised in terms of total clearance (CL), volume of distribution in the central compartment (VC), volume of distribution in the peripheral compartment (VP), and intercompartmental clearance (Q). The first order conditional estimation with inter- and intra-subject variability interaction (FOCE-I) was employed for all model runs. The inter-individual variability (η) was described using lognormal distributions, and a mixed additive and proportional model was chosen for residual variability (Ɛ). […]

[2] = Monitoring of creatinine phosphokinase (CPK) and adverse reactions during treatment; assay type: in vivo, human; details: 64 critically ill patients, 500 mg q24h i.v., during the treatment period
Method: Demographic and clinical characteristics of the enrolled patients were also collected from the medical records, including age, sex, weight, diagnosis, comorbidities, outcome, combination of other drugs (including antimicrobials), daily complete blood counts, biochemical test results (including liver and renal function and creatinine phosphokinase (CPK)), and whether CRRT or ECMO therapy was performed. In addition, acute physiology and chronic health evaluation (APACHE) and sequential organ failure assessment (SOFA) scores were calculated for each patient to determine disease severity. The patient’s creatinine clearance (CLCR) was calculated according to the Cockcroft-Gault formula based on serum creatinine at steady state on day 3.
The daptomycin dose was 500 mg every 24 h.

[3] = cited from earlier work
[4] = bootstrap analysis with 1000 samples

CCCCCCCCCC(=O)N[C@@H](Cc1c[nH]c2ccccc12)C(=O)N[C@H](CC(N)=O)C(=O)N[C@@H](CC(=O)O)C(=O)N[C@@H]1C(=O)NCC(=O)N[C@@H](CCCN)C(=O)N[C@@H](CC(=O)O)C(=O)N[C@H](C)C(=O)N[C@@H](CC(=O)O)C(=O)NCC(=O)N[C@H](CO)C(=O)N[C@@H]([C@H](C)CC(=O)O)C(=O)N[C@@H](CC(=O)c2ccccc2N)C(=O)O[C@@H]1C [daptomycin, Daptomycin]
Q, bootstrap median [1, 4]: 2.086 L/h | VC, bootstrap median [1, 4]: 4.14 L | VP, bootstrap median [1, 4]: 3.527 L | CL, renal part: coefficient of CCR/54 in the final covariate model ([1]; human, in vivo): 0.148 L/h | CRRT clearance, bootstrap median ([1]; human, in vivo): 0.386 L/h | NR (no renal clearance), bootstrap median ([1]; human, in vivo): 0.231 L/h | Q ([1]; human, in vivo): 2.13 ± 0.17 L/h | R (renal clearance), bootstrap median ([1]; human, in vivo): 0.15 | R (renal clearance), final model estimate ([1]; human, in vivo): 0.152 | V1 ([1]; human, in vivo): 4.20 ± 0.19 L | V2 ([1]; human, in vivo): 3.67 ± 0.25 L | non-renal clearance rate (CLNR) of non-CRRT patients ([1]; human, in vivo): 0.23 ± 0.05 L/h | renal clearance part (CLR), coefficient × (CCR/54) ([1]; human, in vivo): 0.14 ± 0.035 | NR (no renal clearance), final model estimate ([1]; human, in vivo, iv): 0.229 L/h | Q (intercompartmental clearance), final model estimate ([1]; human, in vivo, iv): 2.09 L/h | VC (volume of distribution in the central compartment), final model estimate ([1]; human, in vivo, iv): 4.14 L | VP (volume of distribution in the peripheral compartment), final model estimate ([1]; human, in vivo, iv): 3.52 L | clearance ([1]; human, in vivo, iv): 6.43 mL/min | VP of males relative to females ([1]; sex as covariate in forward inclusion, not retained in the final model): approximately 1.4 times | CPK elevation or other adverse reactions related to daptomycin [2]: No increase in CPK or other adverse reactions; also recorded: no elevation of CPK associated with daptomycin was found | metabolism by liver enzymes ([3]; ref Dvorchik et al., 2004): not metabolized by liver enzymes | eliminated by the kidneys ([3]; ref Enoch et al., 2007): 78% | half-life ([3]; ref Hawkey, 2008): approximately 8 h

— publication PMC11096781, “Population pharmacokinetics of intravenous daptomycin in critically ill patients: implications for selection of dosage regimens” (Frontiers in Pharmacology, 2024)
